According to patent US11364227B2 (priority 2020, dated 2022):

What was measured:
ARDS induced thrombosis = test: Rat venous stasis (Wessler) model after LPS-induced lung injury (ARDS induced thrombosis); format: in vivo, Sprague-Dawley rats; details: 250 mg/kg oral gavage 3, 24, 48, 72 h post LPS instillation; rat venous stasis 30 min
Description: This study assessed the efficacy of ABC294640 to reduce the incidence of adverse thromboembolic events in situ in acute respiratory distress syndrome (ARDS) conditions using a rat venous stasis model. This assay is designed to measure thrombotic risks following LPS-induced lung injury. LPS-induced lung injury is one of the most commonly used rodent models for ARDS and was described to mimic the neutrophilic inflammatory response observed in ARDS patients. The mechanism of LPS-induced ARDS is based on damage to endothelial cells and a systemic inflammatory response. […]
Sprague-Dawley rats (male) weighing between 275 and 400 g were used for this study. […] The body weight was recorded before the instillation and 24, 48 and 72 hours post-instillation.
In this study, ARDS was induced by intratracheal instillation of LPS. […] The segment was then excised and its content scored. […]
• 1. Prior LPS or saline instillation, the functional respiratory parameters of all rat was assessed by whole-body plethysmography and SpO2 was evaluated on conscious rat with a collar probe pulse oximeter. […] The respiratory rate, the Penh and the inspiratory/expiratory time measurements was analyzed. • 2. […]
• 5. Rats were evaluated periodically to ensure animal well-being (general behavior and daily body weight). • 6. […] SpO2 and whole-body plethysmography were also evaluated 24, 48 and 72 hours post-instillation. • 8. […]

[1] = Physical description of opaganib drug substance (solubility, hygroscopicity); format: physicochemical
[2] = system: SARS-CoV-2 clinical isolate (2019-nCoV/USA-WA1/2020); test: Anti-viral activity against SARS-CoV-2 in human bronchial epithelial cell (HBEC, EpiAirway) air-liquid-interface cultures, viral titer by TCID50; format: cell-based
[3] = system: human bronchial epithelial cells (HBEC); details: highest concentration tested, 11.25 μg/ml
[4] = system: COVID-19 pneumonia (SARS-CoV-2); test: Randomized, double-blind, placebo-controlled Phase 2a study of opaganib in COVID-19 pneumonia; format: in vivo, human
Description: This was a phase 2a, proof of concept, multi-center randomized double-blind, parallel arm, placebo-controlled study. After informed consent was obtained, patients entered a screening phase for no more than 3 days, to determine eligibility. […] Treatment assignments remained blinded to the patient, investigator and hospital staff, as well as the sponsor. As there was no consensus for a definitive treatment specifically targeting the SARS-CoV-2 virus causing COVID-19 (Wilson, 2020), standard of care referred to regional, institutional or physician directed therapies, that were implemented during the COVID-19 pandemic.
Study drug was to be administered every day for 14 days (Day 1 to Day 14), unless the patient had been discharged from the hospital without requiring supplemental oxygen, in which case study drug would only be administered to Day 10.
Two patients were randomized in each group but not treated. […] Two patients in the opaganib arm experienced adverse events such that study drug was terminated, while one placebo patient was terminated due to an adverse event.
The primary efficacy endpoint calculated for each patient the area under the curve of the supplemental oxygen requirement through day 14, using the trapezoidal rule after subtracting the baseline oxygen requirement at each day. Days where no supplementary oxygen was needed, were recorded as 0. If several values of oxygen requirement (L/min) are recorded in a certain day, for the primary analysis the highest of these values were taken. In the primary analysis, for patients who die before Day 14, or require intubation and mechanical ventilation, missing daily values were assigned the maximal supplemental oxygen flow requirement of 8 L/min. For patients discharged from hospital on supplemental oxygen prior to Day 14, if no values were collected by the site after discharge, the oxygen requirement (L/min) on the day of discharge were to be assigned thereafter for each day to Day 14.
Supplemental oxygen requirement up to Day 14 was collected even if a patient discontinued treatment prior to Day 14 but continued in the study to Day 14. Further, it was assumed that loss to follow up such that vital status up to Day 14 were missing is unlikely. Therefore, the primary analysis assumed that in case that all supplemental oxygen values are missing after treatment discontinuation, the last value is carried forward—until Day 14, or death, if occurred before. A sensitivity analysis to the above missing data handling approach was performed using an AUC summary statistics approach, in which groups AUC is calculated from the estimated parameters of a Repeated-Measures model.
Within the mITT cohort, two subjects withdrew their consent due to grade 1 gastrointestinal AEs.

[5] = system: COVID-19 infection (SARS-CoV-2); test: Pilot / compassionate use study of opaganib in patients hospitalized with COVID-19 pneumonia; format: in vivo, human
Description: Patients entered a screening period of up to 1 week. Eligible patients entered the treatment period for up to 2 weeks. All participants were followed for 2 weeks after their last dose of study drug, at the end of the 2 week treatment period, or once they had 2 consecutive daily negative viral swabs for the COVID-19 virus or at after premature drug discontinuation prior to Day 14. The maximum duration of study participation was 35 days […].
Each dose is administered with food or 15-30 minutes after tube-feeding, where appropriate. […] These patients had moderate to severe COVID-19-related pneumonia with hypoxia on supplemental oxygen.
Five patients were included in the analysis, and for comparison purposes, we used a control group with same-sex, same-severity patients (baseline characteristics). Univariate comparisons between the groups were performed with chi-square test for categorical variables and t-test or MannWhitney U-test for continuous variables, as appropriate. Time variables were compared with Cox proportional hazard regression, adjusted for age and background illnesses. CRP and lymphocyte changes were compared utilizing a repeated measures general linear model with a Bonferroni correction for multiple comparison.

[6] = of 6 moderate-to-severe patients treated, opaganib plus standard-of-care

Q: For O=C(NCc1ccncc1)C12CC3CC(C1)CC(c1ccc(Cl)cc1)(C3)C2 [ABC294640, 3-(4-chlorophenyl)-adamantane-1-carboxylic acid (pyridin-4-ylmethyl)amide], which “thrombosis (blood clot length, weight and total thrombus score)” value (ARDS induced thrombosis) is on record?
A: reduction of thrombosis

Q: What does the source list for Cl.O=C(NCc1ccncc1)C12CC3CC(C1)CC(c1ccc(Cl)cc1)(C3)C2 [opaganib, 3-(4-chlorophenyl)-adamantane-1-carboxylic acid (pyridin-4-ylmethyl) amide, hydrochloride salt]?
A: solubility in water and ethyl acetate [1]: practically insoluble; hygroscopicity ([1]; solid): non-hygroscopic; concentration at which complete inhibition of infectious virus production starts ([2]; SARS-CoV-2-infected HBEC, 3 days incubation): 1 µg/mL; infectious virus production ([2]; SARS-CoV-2-infected HBEC, 3 days incubation, 0.05 to 11.25 μg/ml): dose-dependent reduction; inhibition at 0.05 µg/mL ([2]; Severe acute respiratory syndrome coronavirus 2, Epithelial cell, read-out: inhibition of infectious virus production): > 90%; cell viability [3]: remained viable; proportion of patients reaching room air and no longer requiring oxygen support by Day 14 ([4]; opaganib 500 mg Q12 h + standard of care, control arm 22.2%): 52.6%; reduction from baseline of the medial total oxygen requirement (AUC) over 14 days ([4]; opaganib 500 mg Q12 h + standard of care, control arm 46.7%): 68.0%; proportion of patients discharged by Day 14 ([4]; opaganib 500 mg Q12 h + standard of care, control arm 55.6%): 73.7%; proportion of patients with 50% reduction in supplemental oxygen by day 14 ([4]; opaganib 500 mg Q12 h + standard of care, control arm 66.7%): 89.5%; patients with adverse events such that study drug was terminated ([4]; opaganib arm, one in placebo arm): Two; patients with serious adverse events (SAEs) vs placebo arm ([4]; opaganib treatment arm compared with placebo arm): fewer patients suffered from serious adverse events; safety (top-line) ([4]; vs placebo arm): safe, with no material safety differences; HR for time to weaning from HFNC, cases vs. controls ([5]; Cox regression, 95% CI: 0.07-1.7, p=0.2): 0.3; HR for time to ambient air, cases vs. controls ([5]; Cox regression, 95% CI: 0.15-1.5): 0.4; Clinical Assessment ([5]; Patient 1 (14 d), started as severe on maximal OptiFlow Apr. 3, 2020, RA = room air): Apr. 3, 2020; RA by 16/4. As of 22/4, one negative; Lymphocytes, most recent ([5]; Patient 1 (14 d on opaganib), baseline 1.6, Apr. 17, 2020): 2.8 (Apr. 17, 2020) 10^3/mm^3; CRP, most recent ([5]; Patient 1 (14 d on opaganib), baseline 15.1, Apr. 17, 2020): 1 (Apr. 17, 2020) mg/L; Clinical Assessment ([5]; Patient 2 (14 d), started as severe+, planning for intubation Apr. 7, 2020, RA = room air, D/C = discharged): Apr. 7, 2020; RA by Apr. 20, 2020, D/C on Apr. 22, 2020; Lymphocytes, most recent ([5]; Patient 2 (14 d on opaganib), baseline 1.1, Apr. 17, 2020): 2.1 (Apr. 17, 2020) 10^3/mm^3; CRP, most recent ([5]; Patient 2 (14 d on opaganib), baseline 14.2, Apr. 17, 2020): 4.8 (Apr. 17, 2020) mg/L; Clinical Assessment ([5]; Patient 3 (7 d), moderate-severe, on OptiFlow Apr. 13, 2020, D/C = discharged): Apr. 7, 200, D/C on Apr. 19, 2020; Lymphocytes, most recent ([5]; Patient 3 (7 d on opaganib), baseline 0.9, Apr. 17, 2020): 1.2 (Apr. 17, 2020) 10^3/mm^3; CRP, most recent ([5]; Patient 3 (7 d on opaganib), baseline 10.7, Apr. 17, 2020): 1.7 (Apr. 17, 2020) mg/L; Clinical Assessment ([5]; Patient 4 (11 d), started severe+ 70% OptiFlow on Apr. 13, 2020, RA = room air): RA on Apr. 22, 2020; Lymphocytes, most recent ([5]; Patient 4 (11 d on opaganib), baseline 1.2, Apr. 22, 2020): 1 (Apr. 22, 2020) 10^3/mm^3; CRP, most recent ([5]; Patient 4 (11 d on opaganib), baseline 24.8, Apr. 22, 2020): 17.4 (Apr. 22, 2020) mg/L; Clinical Assessment ([5]; Patient 5 (2 d), started moderate on Apr. 13, 2020, nasal cannula, D/C = discharged, RA = room air): opaganib; D/C on Apr. 14, 2020 on RA; Lymphocytes, most recent ([5]; Patient 6 (5 d on opaganib), baseline 1.35, Apr. 24, 2020): 1.96 (Apr. 24, 2020) 10^3/mm^3; CRP, most recent ([5]; Patient 6 (5 d on opaganib), baseline 12.2, Apr. 24, 2020): 6.8 (Apr. 24, 2020) mg/L; adverse event leading to discontinuation ([5]; Patient 7, also on HCQ and azithromycin, may or may not be related to opaganib, all 3 meds stopped): Diarrhea the next day, all 3 meds were stopped, followed by worsening SOB, on 75% OptiFlow.; clinical improvement ([5]; all 6 moderate to-severe patients (patient #7 excepted)): improved significantly; C-Reactive Protein (CRP) change ([5]; all six patients): reduction in C-Reactive Protein (CRP); time to ambient air ([5]; cases, controls 14.5 days): 13 days; median time to weaning from high-flow nasal cannula (HFNC) ([5]; cases, controls 15 days, p=0.2): 10 days; cases requiring mechanical ventilation ([5]; compared with 33% of controls): none of the cases required mechanical ventilation; increase in lymphocyte count vs matched control group ([5]; five patients analysed vs same-sex, same-severity controls): significantly faster increase in lymphocyte count; number of patients back to breathing room air [5, 6]: 5 patients; number of patients discharged from hospital [5, 6]: 3 patients; safety and tolerability ([5]; small cohort of severe COVID-19 patients): safe and well tolerated
